Patent US20210121482A1, “WITHANOLIDES FOR THE TREATMENT OF CACHEXIA” (University of Louisville Research Foundation, Inc., priority 2019, published 2021)

Key:
[1] = tested on: left ventricular systolic and diastolic function; test: Echocardiography; format: in vivo, mice
Method: Left ventricular (LV) systolic and diastolic function were evaluated by transthoracic echocardiography using a Vevo 3100 system and a 40 MHz linear probe (FUJIFILM VisualSonics Inc., Toronto, Ontario, Canada). Mice were anesthetized with isoflurane, maintained at an equivalent surgical depth of anesthesia (induction chamber at 5% with 1.5-2.0 L/min 02 flow, followed by 1.5-2.0% with 1.5-2.0 L/min 02 flow), and placed in the supine position. The skin over the thorax was shaved and then briefly subjected to a depilatory cream. Body temperature was maintained at 37-38° C., and heart rate was monitored using the accompanying Vevo Imaging Station. Briefly, variables that represent diastolic function (E/A ratio, isovolumetric relaxation time (IVRT), and (E/e′) were measured during the resting condition from an apical four-chamber view with conventional pulsed wave tissue Doppler. The E/A ratio was calculated from the peak velocity flow in early diastole (the E wave) to the peak velocity flow in late diastole caused by atrial contraction (the A wave) during resting conditions.
An image was captured along the parasternal short axis and analyzed offline using the Vevo® Lab software. Standard measures of LV structure [i.e., LV internal diameter (LVID) and LV posterior wall thickness (PWT)] and function [i.e., stroke volume (SV), cardiac output (CO), and ejection fraction (EF)] were obtained along the parasternal short axis during resting and stress conditions. In M-mode, wall thickness and chamber dimensions across the sample line were used to calculate anatomical and functional parameters. End-diastolic and end-systolic volumes were estimated from LVID […]. Results from five cardiac cycles during expiration were averaged together and used for between-group and within-group comparisons. Continuous ECG and heart rate monitoring were performed over a period of one hour while the other measurements were collected.

[2] = tested on: angiotensinogen (AGT); test: qPCR of angiotensinogen in tumor tissues; format: in vivo, Homo sapiens
Method: Total RNA Extraction and qPCR: Isolation of total RNA from xenografted tumor samples was performed using an RNeasy® Mini Kit (Qiagen Catalog #74104) according to the manufacturer's instructions. Isolation of total RNA from skeletal muscle was performed using an RNeasy® Fibrous Tissue Mini Kit (Qiagen Catalog #74704) according to the manufacturer's instructions. First strand cDNA was synthesized using 1 μg of purified RNA and a commercially available kit (iScript™ cDNA synthesis, Bio-Rad Catalog #170-8891), Quantification of mRNA expression was performed similar to as previously described (Hindi and Kumar, 2016) using the SYBR Green dye method on a StepOnePlus™ system (Applied Biosystems) using gene-specific primers, as shown in Table 1.
Isolation and preparation of total RNA was performed as described in Example 1.

[3] = tested on: A2780 ovarian cancer xenograft; test: Survival and tolerability, A2780 xenograft mice (Example 1)
Method: Tumor-bearing groups received an IP injection of 1.0×10^6 low passage A2780 cells suspended in 100 μl sterile PBS.
Graphical Display and Statistical Analyses: The majority of the results were expressed as box-and-whisker plots with the box comprised of the first, second, and third quartiles, and the lower and upper whiskers corresponding to the minimum and maximum values, respectively, to display the entire range of data. A Kaplan-Meier curve was used for the survival analysis. Statistical analysis of the data was performed using one-way analysis of variance (ANOVA) followed by Tukey's Honestly Significant Difference Test (HSDT) post hoc analysis or the Mantel-Cox log-rank test to determine statistically significant differences between groups with GraphPad Prism 8.0.1 software for Mac (La Jolla, Calif., USA). A value of P<0.05 was considered statistically significant, unless otherwise specified.

[4] = tested on: TA muscle myofibers (MyHC I, IIa, IIb); test: Skeletal muscle fiber-type immunostaining; format: in vivo, mice
Method: Skeletal Muscle Fiber-type Immunostaining: To determine the composition of different types and gross composition of skeletal muscle fibers, 10 μm thick transverse sections were made from TA muscles, a hydrophobic boundary was drawn around the section, and then blocked with 5% goat serum and 2% bovine serum albumin (BSA) in PBS for 30 minutes. The sections were then incubated for one hour with monoclonal antibodies against myosin heavy chain (MyHC) isoforms type I, IIa, and IIb using clone BA-D5, […], and BF-F3, respectively (Developmental Studies Hybridoma Bank, Iowa City, Iowa, USA). The following secondary antibodies were then used for detection after 1-2 hours of incubation period: anti-Mouse IgG2b (γ2b) CF™ 350 antibody produced in goat, anti-Mouse IgG1 (yl) CF™ 568 antibody produced in goat, and Alexa Fluor-488 goat anti-mouse IgM. Fluorescence images were captured with a Nikon TiE 3000 inverted microscope, the single-color channels were merged, and percentage of each fiber-type in whole muscle section was recorded. Nonspecific background staining was performed using the above protocol but omitting the inclusion of the primary antibodies. Antibodies BA-D5, SC-71, and BF-F3 were deposited to the DSHB by Schiaffino, S. (DSHB Hybridoma Product BA-D5, SC-71, and BF-F3).

[5] = tested on: ovarian cancer-induced cachexia; test: Grip strength (Example 1); format: in vivo, mice; settings: for normalized forelimb grip strength: 2 and 6 mg/kg
Method: Grip Strength Measurements: Before assessment, mice were weighed on a commercially available digital scale. Forepaw and total grip strength of mice were measured using a digital grip strength meter (Columbus Instruments, Columbus, Ohio, USA) and then normalized by total body weight. Before the beginning of the test, the mice were acclimatized for five minutes. The mouse was allowed to grasp the total paw pull-bar assembly, and in a separate experiment the forepaw pull-bar assembly. The mouse was then gently drawn with constant force in a straight line away from the device until the mouse could no longer grasp the bar. Force at time of release was recorded as the peak tension. Each mouse was tested five times with a delay of 20-40 seconds between each testing. The mean peak tension was calculated from the recordings normalized by total body weight.

[6] = Body composition by DEXA scan; format: in vivo, mice; settings: 2 and 6 mg/kg
Method: Analysis of Body Composition: Body fat and lean mass composition, as well as the bone mineral content and density, excluding head region of interest (ROI), were determined by dual-energy X-ray absorptiometry (DEXA) scan using a mouse densitometer (PIXImus 2; Lunar, Madison, Wis., USA). According to the manufacturer's guidelines to calibrate and validate the performance of the apparatus, a “mouse phantom” provided with the machine was scanned before scanning the first mouse. Animals were […] immediately before assessment by DEXA scan. The mouse was then transferred to the disposable PIXImus measuring tray in the prone position with their head in a loosely fitting nose cone to aid positioning. Upon completion of the DEXA scan, approximately five minutes, the mouse was placed on ice to preserve tissue prior to collection.

[7] = tested on: A2780; test: Effect on ovarian cancer cell line A2780; format: cell-based; settings: A2780 cells; through reactive oxygen species production and DNA damage
[8] = tumor-bearing, 2 and 4 mg/kg, vs tumor-bearing vehicle

CC1=C(CO)C(=O)O[C@@H]([C@@H](C)[C@H]2CC[C@H]3[C@@H]4C[C@H]5O[C@]56[C@@H](O)C=CC(=O)[C@]6(C)[C@H]4CC[C@]23C)C1 [WFA, (4β,5β,6β,22R)-4,27-Dihydroxy-5,6:22,26-diepoxyergosta-2,24-diene-1,26-dione]
isovolumetric relaxation time (IVRT) ([1]; WFA vs vehicle within tumor-free or tumor-bearing groups): no significant differences within the tumor-free or tumor-bearing groups | cardiac output (CO) ([1]; tumor-bearing mice, WFA treatment): similarly normalized | LV mass [1, 8]: significant increase in LV mass | diastolic dysfunction (E/A ratio, E/e′ ratio) [1, 8]: partially improved | fractional shortening (FS) ([1]; tumor-bearing, WFA 2 mg/kg): 57.8±3.6% | fractional shortening (FS) ([1]; tumor-bearing, WFA 4 mg/kg): 55.3±3.2% | diastolic function ([1]; tumor-free animals): did not affect diastolic function in tumor-free animals | HR and CO ([1]; tumor-free mice, WFA treatment): did not have any effect on HR or CO in tumor-free mice | heart rate ([1]; tumor-free or tumor-bearing WFA-treated groups vs tumor-free vehicle): No significant differences in heart rate | LV mass ([1]; tumor-free, vehicle vs either dose of WFA): No significant difference in LV mass | relative transcript levels of angiotensinogen in tumor samples ([2]; WFA 2 mg/kg): 0.3676±0.252 fold change | relative transcript levels of angiotensinogen in tumor samples ([2]; WFA 4 mg/kg): 0.0694±0.144 fold change | survival (Kaplan-Meier) ([3]; 2 mg/kg, vs WFA 6 mg/kg and vehicle treated groups): higher survival rate | toxicity of high dose ([3]; 6 mg/kg IP every three days, tumor-bearing NSG mice): may be a lethal dose | survival (Kaplan-Meier) ([3]; 6 mg/kg, vs vehicle treated group (p=0.06)): trend towards an increase in survival | proportion of Type IIb myofibers in TA muscle ([4]; 2 and 6 mg/kg, vs control and vehicle treated groups): significantly reduced in the WFA treated groups in a dose-dependent manner | percentage of Type IIa myofibers in TA muscle ([4]; 2 and 6 mg/kg, vs vehicle treated and control groups): significant increase in Type IIa myofibers | percentage of Type I myofibers in TA muscle ([4]; all groups): no significant differences were found | percentage of Type IIx myofibers in TA muscle ([4]; all groups): no significant differences were elucidated upon post hoc analysis | normalized total limb grip strength ([5]; 2 mg/kg, vs vehicle treated group, weeks 1-3): significant protective effect on total limb grip strength | normalized total limb grip strength ([5]; 6 mg/kg, vs vehicle treated group): initially protective, but the grip strength eventually deteriorated to the same extent as the vehicle treated group | normalized forelimb grip strength ([5]; vs control group, significant at week 3): reduction in normalized grip strength | normalized forelimb grip strength ([5]; vs vehicle treated group, significant by week 2): attenuation of normalized forelimb grip strength | bone mineral density or content [6]: No significant differences | proportion of lean tissue to body weight ([6]; all tumor-bearing groups vs control): significant increase in the proportion of lean tissue to body weight | proportion of adipose tissue to whole body weight ([6]; vs vehicle treated group): attenuation of adipose tissue | cell death [7]: autophagic cell death
